59 molecules from BindingDB's records for doi:10.1007/s10822-022-00478-x (Roche Innovation Center Basel, F. Hoffmann-La Roche Ltd., 2022) can be followed below.

The assay addresses cAMP and cAMP-inhibited cGMP 3',5'-cyclic phosphodiesterase 10A (Homo sapiens, UniProt Q9Y233). Put plainly: PDE10A assay. In outline:
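Human PDE10A (2 ng/well) preincubated 15 min RT with compound in HEPES pH 7.5, 10 mM MgCl2, BSA, then reacted 15 min with 50 nM [3H]cGMP/cGMP substrate. Stopped with Y-Si SPA beads; bound radioactivity counted, IC50 from four-parameter logistic, pIC50 = −log10(IC50).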

Turning to `Cc1ncc(C)n2nc(/C=C/c3nc(C)n(-c4ccccc4)n3)nc12` [Roche-Dataset for PDE10A, Compound 720], the IC50 (as a rule, the concentration that inhibits the measured activity by half) was determined as 177 nM. In other words, the sub-micromolar range.

In turn, `Cn1ncc(C(=O)N2CCC2)c1C(=O)Nc1cc2nc(N3CCOCC3)nn2cn1` [Roche-Dataset for PDE10A, Compound 422] came in with an IC50 of 4.83 nM. As to `CCn1cc(-c2ccccc2)nc1CCc1nc2ccccc2nc1C` [Roche-Dataset for PDE10A, Compound 87], inhibition was half-maximal at 41 nM (IC50). For `O=C(Nc1ccn2nc(-c3ccccc3)nc2c1)c1cc(Cl)ccn1` [Roche-Dataset for PDE10A, Compound 454], half-maximal inhibition (IC50) required 76 nM. This IC50 lies about 1.9-fold higher than the previous one. As to `CCN(C)C(=O)c1cnn(C)c1C(=O)N[C@@H]1CCn2cc(-c3cccc(OC)c3)nc2C1` [Roche-Dataset for PDE10A, Compound 136], the IC50 stood at 1730 nM. The molecule `Cn1cc(-c2ccccc2)nc1COc1ncc(C2CC2)nc1C(=O)NCc1ccccc1` [Roche-Dataset for PDE10A, Compound 59] came in with an IC50 of 57 nM. `COc1ccccc1-c1cn2c(n1)C[C@H](NC(=O)c1c(C(=O)N3CCC3)cnn1C)CC2` [Roche-Dataset for PDE10A, Compound 330]: the IC50 amounted to 3.76 nM. For `CC(=O)c1cc(NC(=O)c2nc(C3CC3)cnc2Nc2cncnc2)ccc1F` [Roche-Dataset for PDE10A, Compound 869], it took 9.64 nM to reach half-maximal inhibition (IC50). Against the preceding molecule, the IC50 is about 2.6-fold higher. The value for `CC(=O)Nc1nc2cc(NC(=O)c3nc(C)ccc3C)ccc2s1` [Roche-Dataset for PDE10A, Compound 926] was 5770 nM; that for `CCN(C)C(=O)c1cnn(C)c1C(=O)Nc1ccn2cc(-c3cccc(OCCCF)c3)nc2n1` [Roche-Dataset for PDE10A, Compound 1] was 6.05 nM. Molecule `Cc1ncc(C)n2nc(CCc3nc(N4CCCC4)nn3C)nc12` [Roche-Dataset for PDE10A, Compound 626] showed an IC50 of 2.3 nM. Regarding `Cn1ncc(C(=O)N2CCC2)c1C(=O)Nc1ccn2nc(-c3ccccc3OCCCF)nc2c1` [Roche-Dataset for PDE10A, Compound 11], the midpoint of inhibition, the IC50, lay at 0.3 nM. The value for `O=C(Nc1cnc(Cl)cn1)c1nc(C2CC2)ccc1Nc1cncnc1` [Roche-Dataset for PDE10A, Compound 1090] was 146 nM; that for `Cn1ncc(C(=O)N2CCC2)c1C(=O)Nc1ccc2nc(N3CCOCC3)nn2c1` [Roche-Dataset for PDE10A, Compound 412] was 16 nM. Consider `COCCOc1cc(Cl)c(C)n2nc(CCc3nc(N4CCCC4)nn3C)nc12` [Roche-Dataset for PDE10A, Compound 146], for which inhibition was half-maximal at 0.17 nM (IC50).

As to `COCCN(C)c1nc(CCc2nc3c(C)ncc(C)n3n2)nn1C` [Roche-Dataset for PDE10A, Compound 847], half-maximal inhibition (IC50) required 1780 nM. In turn, `C/C(=C/c1nc2c(C)ncc(C)n2n1)c1nc(Br)nn1C` [Roche-Dataset for PDE10A, Compound 1134] displayed an IC50 of 2260 nM. Under `Cn1ncc(C(=O)N2CCC2)c1C(=O)Nc1ccn(Cc2ccccc2)n1` [Roche-Dataset for PDE10A, Compound 950] stands 116 nM; under `CC(=O)Nc1cccc(NC(=O)c2nc(C3CC3)cnc2Nc2cncnc2)n1` [Roche-Dataset for PDE10A, Compound 1084], 25 nM; under `COc1ccccc1-c1cn2c(n1)C[C@H](NC(=O)c1c(C(=O)N(C)CCF)cnn1C)CC2` [Roche-Dataset for PDE10A, Compound 351], 173 nM. Molecule `Cn1ncc(C(=O)N2CCC2)c1C(=O)Nc1ccnn1-c1ccccn1` [Roche-Dataset for PDE10A, Compound 1024] yielded an IC50 of 130 nM. Consider `Cn1ncc(C(=O)N2CCC2)c1C(=O)Nc1ccc2sc(N3CCOCC3)nc2c1` [Roche-Dataset for PDE10A, Compound 397], for which half-maximal inhibition (IC50) was put at 1.86 nM. The molecule `CS(=O)(=O)c1ccccc1NC(=O)c1nc(C2CC2)ccc1Nc1cncnc1` [Roche-Dataset for PDE10A, Compound 1071] registered an IC50 of 27 nM. Compared with the last molecule, the IC50 is about 15-fold higher. The value for `Cc1cn2nc(CCc3nc(N4CCCC4)nn3C)nc2cn1` [Roche-Dataset for PDE10A, Compound 678] was 929 nM. Molecule `NS(=O)(=O)c1ccc(CNC(=O)c2nc(C3CC3)cnc2Nc2cncnc2)cc1` [Roche-Dataset for PDE10A, Compound 817] came in with an IC50 of 389 nM. Consider `Cn1ncc(C(=O)N2CCC2)c1C(=O)Nc1ccn(-c2ccccc2F)n1` [Roche-Dataset for PDE10A, Compound 1043], for which half-maximal inhibition (IC50) required 396 nM. On to `CC(=O)N1CCC(NC(=O)c2nc(C3CC3)cnc2Nc2cncnc2)CC1` [Roche-Dataset for PDE10A, Compound 993], for which 10000 nM corresponded to half-maximal inhibition (IC50).

Turning to `CN(C)CCn1nccc1NC(=O)c1nc(C2CC2)cnc1Nc1cncnc1` [Roche-Dataset for PDE10A, Compound 857], the IC50 is 314 nM. Molecule `CN(C)c1nc2cc(NC(=O)c3c(C(=O)N4CCCC4)cnn3C)ccn2n1` [Roche-Dataset for PDE10A, Compound 489] displayed an IC50 of 5.27 nM. In the case of `CN(C)C(=O)c1cnn(C)c1C(=O)N[C@@H]1CCn2c(nc(-c3ccccc3)c2Cl)C1` [Roche-Dataset for PDE10A, Compound 221], the IC50 worked out at 30 nM. This IC50 lies about 5.7-fold higher than the previous one. Under `O=C(Nc1ccn2nc(-c3ccccc3)nc2c1)c1onc2ccc(Br)cc12` [Roche-Dataset for PDE10A, Compound 592] stands 10 nM. Consider `O=C(Nc1ccncc1F)c1ccc2cc(-c3ccccc3)nn2c1` [Roche-Dataset for PDE10A, Compound 471], for which the midpoint of inhibition, the IC50, lay at 933 nM. This IC50 lies about 93-fold higher than the previous one. For `Cn1ncc(CO)c1C(=O)Nc1ccn2nc(-c3ccccc3)nc2c1` [Roche-Dataset for PDE10A, Compound 287], 52 nM corresponded to half-maximal inhibition (IC50). This IC50 lies about 18-fold lower than the previous one. Molecule `COCCOc1ccc(NC(=O)c2nc(C3CC3)cnc2Nc2cncnc2)c(C(=O)NCC(C)(C)O)c1` [US8703768, 213] gave an IC50 of 0.74 nM. Against the preceding molecule, the IC50 is about 70-fold lower.

As for `O=C(Nc1cc(-c2ccccn2)nn1CCc1ccccc1)c1nc(C2CC2)ccc1Nc1cncnc1` [US8470820, 17], the IC50 is 4.91 nM.

With `O=C(Nc1nnc(-c2ccc(F)cc2)s1)c1nc(C2CC2)ccc1Nc1cncnc1` [US8470820, 45], half-maximal inhibition (IC50) was put at 6200 nM. The value for `Cc1ncc(C)n2nc(CCc3nc(N4CCCOCC4)nn3C)nc12` [Roche-Dataset for PDE10A, Compound 984] was 1270 nM. With `Cc1ncc(C)n2nc(/C=C/c3nc(-c4cc[nH]n4)nn3C)nc12` [Roche-Dataset for PDE10A, Compound 618], 46 nM corresponded to half-maximal inhibition (IC50).

In the case of `O=C(Nc1ccc(-c2ccccn2)s1)c1nc(C2CC2)ccc1Nc1cncnc1` [US8470820, 50], the IC50 amounted to 1.43 nM. Against the preceding molecule, the IC50 is about 32-fold lower. On to `CN(C)C(=O)Cn1cc(NC(=O)c2nc(C3CC3)cnc2Nc2cncnc2)cn1` [Roche-Dataset for PDE10A, Compound 787], for which half-maximal inhibition (IC50) required 671 nM. For the molecule `CNC(=O)c1cccc(NC(=O)c2nc(C3CC3)cnc2Nc2cncnc2)n1` [Roche-Dataset for PDE10A, Compound 1026], the IC50 turned out to be 170 nM. Consider `O=C(NC[C@@H]1[C@@H](c2ccccc2)C1(F)F)c1nc(C2CC2)cnc1Nc1cncnc1` [Roche-Dataset for PDE10A, Compound 661], for which the IC50 is 954 nM. The value for `CNC(=O)c1c(NC(=O)c2nc(C3CC3)ccc2Nc2cncnc2)cnn1C` [Roche-Dataset for PDE10A, Compound 1053] was 14 nM; that for `O=C(Nc1ccc(N2CCCC2=O)cc1)c1nc(C2CC2)ccc1Nc1cncnc1` [Roche-Dataset for PDE10A, Compound 733] was 18 nM; that for `O=C(Nc1cncc(OC(F)F)c1)c1nc(C2CC2)cnc1Nc1cncnc1` [Roche-Dataset for PDE10A, Compound 855] was 134 nM. Molecule `Cn1nc(-c2ccccn2)cc1NC(=O)c1cc(Br)c[nH]c1=O` [Roche-Dataset for PDE10A, Compound 636] came in with an IC50 of 295 nM. In turn, `Cn1ncc(C(=O)O)c1C(=O)Nc1ccc2nc(N3CCOCC3)nn2c1` [Roche-Dataset for PDE10A, Compound 1151] had an IC50 of 1340 nM. Molecule `Cc1cccc(-c2cn3c(n2)C[C@H](NC(=O)c2c(C(=O)N(C)C4CC4)cnn2C)CC3)c1` [Roche-Dataset for PDE10A, Compound 114] had an IC50 of 8.53 nM. Turning to `O=C(Nc1cc2nc(-c3ccccc3)cn2cc1Br)c1nc(C2CC2)ccc1Nc1cncnc1` [Roche-Dataset for PDE10A, Compound 354], it took 1.15 nM to reach half-maximal inhibition (IC50). Compared with the last molecule, the IC50 is about 7.4-fold lower. In turn, `O=C(Nc1ccn2nc(-c3ccccc3)nc2c1)c1onc2ccccc12` [Roche-Dataset for PDE10A, Compound 420] gave an IC50 of 194 nM. `O=C(O)c1cccnc1C(=O)Nc1ccn2nc(-c3ccccc3)nc2c1` [Roche-Dataset for PDE10A, Compound 381] showed an IC50 of 641 nM. `Cc1cc(C)n2nc(CCc3nc(N4CCCC4)nn3C3CC3)nc2n1` [Roche-Dataset for PDE10A, Compound 475] returned an IC50 of 8.2 nM. This IC50 is about 78-fold lower than that of the molecule before. The value for `CCc1nc(C)c(C(=O)Nc2cc3nc(-c4ccccc4)[nH]c3cc2C(=O)NCC2(C)COC2)o1` [Roche-Dataset for PDE10A, Compound 178] was 3.53 nM; that for `Cc1c(Cl)cc(Cl)c2nc(CCc3nc(N4CCCC4)nn3C)nn12` [Roche-Dataset for PDE10A, Compound 357] was 0.55 nM. The value for `COc1ccc2c(=O)n(C)c3c(C)nc(C)n3c2c1` [Roche-Dataset for PDE10A, Compound 1111] was 2520 nM; that for `CNC(=O)c1nn(C)cc1NC(=O)c1ccc2cc(-c3ccccc3)nn2c1` [Roche-Dataset for PDE10A, Compound 532] was 195 nM. With `Cn1cc(-c2ccccc2)nc1COc1nc(N2CCOCC2)c2ccccc2n1` [Roche-Dataset for PDE10A, Compound 240], it took 11 nM to reach half-maximal inhibition (IC50). This IC50 is about 18-fold lower than that of the molecule before. `COc1cccc(-c2cn3c(n2)C[C@H](NC(=O)c2c(C(=O)N(C)C)cnn2C)CC3)c1` [Roche-Dataset for PDE10A, Compound 230] returned an IC50 of 263 nM.

On to `O=C(Nc1ccn(C2CCCCC2)n1)c1nc(C2CC2)ccc1Nc1cncnc1` [Roche-Dataset for PDE10A, Compound 632], for which the midpoint of inhibition, the IC50, lay at 19 nM.
